Laboratory results published in patent US20250325511A1, “DIETARY BUTYRATE” (SOCIETE DES PRODUITS NESTLE S.A., priority 2019, published 2025).
Entries after “also recorded” stand apart in the source; their conditions may differ.

Tests used:
[1] = tested on: rabbit gastric lipase followed by porcine pancreatic lipase; assay: Sequential in vitro digestion SGF (RGL) followed by SIF (PPL), pH-stat
Description: No measurements were taken in the gastric compartment due to limited ionisation of the target fatty acids.

[2] = target: T1, porcine pancreatic lipase (from pancreatin) (Sus scrofa, UniProt P00591)
T1 sequence (P00591 1-450): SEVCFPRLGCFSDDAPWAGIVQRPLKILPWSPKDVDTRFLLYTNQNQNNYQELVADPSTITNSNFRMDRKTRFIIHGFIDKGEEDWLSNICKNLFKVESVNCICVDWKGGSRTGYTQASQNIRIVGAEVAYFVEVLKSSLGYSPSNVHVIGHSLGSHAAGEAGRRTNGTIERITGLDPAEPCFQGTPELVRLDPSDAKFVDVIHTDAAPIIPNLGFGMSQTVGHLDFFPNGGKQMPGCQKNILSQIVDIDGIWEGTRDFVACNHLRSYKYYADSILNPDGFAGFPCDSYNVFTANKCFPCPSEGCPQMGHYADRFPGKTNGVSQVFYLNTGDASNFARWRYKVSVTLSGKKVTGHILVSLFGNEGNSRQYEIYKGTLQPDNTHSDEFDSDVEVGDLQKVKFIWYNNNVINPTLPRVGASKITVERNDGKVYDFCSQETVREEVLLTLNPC
T1 sequence (P02703 23-112 partner): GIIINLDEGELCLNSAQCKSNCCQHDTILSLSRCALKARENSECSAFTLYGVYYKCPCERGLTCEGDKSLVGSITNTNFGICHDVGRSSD

Structure (SMILES): CCCC(=O)OCC(COC(=O)CCC)OC(=O)CCC [tributyrin]
- Initial lipolysis rate in SIF during SGF-SIF digestion ([1]; after 90 min SGF with rabbit gastric lipase, emulsion with 200 mg fat): 44.1 ± 8.8 µmol/min
- Hydrolysis in the stomach (gastric compartment of the model) ([1]; in words): considerable digestion; also recorded: extensive hydrolysis
- Lipolysis by gastric lipase ([1]; indicated by decreased total fatty acid release in SIF after RGL pre-exposure): ~60%
- Initial rate of lipolysis ([2]; SIF alone, emulsion with 200 mg fat, pH 6.8, 37° C.): 223 ± 59 µmol/min
- Overall extent of lipid digestion ([2]; back titration to pH 11.5, after SIF and SGF-SIF (FIG. 2)): 101.5±0.9%
